From patent US20170212981A1, “METHODS FOR SCREENING THERAPEUTIC AGENT FOR PROTEIN CONFORMATIONAL DISEASES” (SOOKMYUNG WOMEN'S UNIVERSITY INDUSTRY ACADEMIC COOPERATION …, priority 2016, published 2017)
Where two headings read alike, the source gives them in different places.

Experiments:
[1] = target: T1, Aβ oligomers (Homo sapiens, UniProt P05067); assay: Saturation assay, apparent binding constant for Aβ oligomers; conditions: Aβ oligomers 20 μM, λex=530 nm
T1 construct: Preformed oligomers were prepared by Aβ1-40 peptide solubilized in borate-buffered saline; purchased American Peptide Co. (Sunnyvale, Calif.); host or cells: chemical synthesis, then cross-linked in house with glutaraldehyde
Procedure: FIG. 7 depicts BD-Oligo binding constant (Aβ oligomers: 20 μM, λex=530 nm), F is the fluorescence intensity of BD-Oligo at 580 nm after binding with Aβ oligomers; and F0 is the fluorescence intensity of BD-Oligo at 580 nm before binding with Aβ oligomers.
To quantify the affinity of BDOligo for Aβ oligomers, we measured the apparent binding constant (Kd) of BD-Oligo by conducting a saturation assay.

[2] = target: T2, Aβ1-40 monomers, oligomers, fibrils (Homo sapiens, UniProt P05067); assay: Emission of dye incubated with preformed Aβ monomers, oligomers and fibrils; type: binding; conditions: Aβ 20 μM
T2 construct: Synthetic Aβ1-40 was purchased from American Peptide Co; purchased American Peptide Co. (Sunnyvale, Calif.); host or cells: chemical synthesis
Procedure: Synthetic Aβ1-40 was purchased from American Peptide Co. (Sunnyvale, Calif.) in lyophilized form. Dry peptide was dissolved in 1,1,1,3,3,3-hexafluoro-2-isopropanol (HFIP) and incubated at 25° C. for 1 h to remove any preformed aggregates. It was aliquoted into small aliquots and dried using a speed-vac. The dry peptide was stored at −20° C. until required, where each aliquot was then dissolved in 5 M GuHCl 10 mM Tris.Cl pH 8 to 1 mM peptide solution. After sonication in a sonicating water bath for 15 min, the solution was diluted with phosphate-buffered saline (PBS), pH 7.4, and stored on ice until use. This freshly prepared sample is referred to as monomer. To form fibrils, 100 μM sample is incubated for 24 h at 37° C. with 5 s shaking at a 7 min interval. […] Prior to fluorescence assays, it is resolubilized in deionized distilled water and diluted in PBS. […]
HPLC-MS was taken on an Agilent-1200 with a DAD detector and a single quadrupole mass spectrometer (6130 series). […] Spectroscopic and quantum yield data were measured on a SpectraMax M2 spectrophotometer (Molecular Devices). Compounds in solvent (100 μL) in 96-well polypropylene plates was for fluorescence measurement. […] 1H-NMR and 13C-NMR spectra were recorded on Bruker AMX500 (500 MHz) spectrometers, and chemical shifts are expressed in parts per million (ppm) and coupling constants are reported as a J value in Hertz (Hz).

[3] = target: T3, Aβ1-40 (Homo sapiens, UniProt P05067); assay: Time-dependent fibril formation monitored by dye fluorescence; type: binding; conditions: Aβ1-40 at 37° C. with shaking; aliquots added to dye
T3 construct: Synthetic Aβ1-40 was purchased from American Peptide Co; purchased American Peptide Co. (Sunnyvale, Calif.); host or cells: chemical synthesis
Procedure: For monitoring of fibril formation over time, 40 µM peptide solution of Aβ1-40 was prepared as above and incubated at 37° C. with 5 s shaking at every 7 min interval. Fluorescence readings were taken at various time point intervals by mixing a 30 μL aliquot of peptide solution to […]. ThT signal was monitored at 480 nm by 444 nm excitation, whereas BD-Oligo was excited at 530 nm and its emission detected at 585 nm. Fluorescence was measured using a SpectraMax M2 spectrophotometer (Molecular Devices, Sunnyvale, Calif.). Aβ1-40 was also coincubated with dye to study any effects the dye may have on fibril formation.

[4] = test system: APP/PS1 transgenic (Tg) AD model mice; assay: Ex vivo imaging of brains after ip injection; type: in vivo
Procedure: For ex vivo imaging, a stock solution of BD-Oligo was made at 10 mM in 100% DMSO.
Eighteen month old APP/PS 1 transgenic (Tg) AD model mice were given intraperitoneal (ip) injections with either 1.25 μL of BD-Oligo diluted in 500 μL of saline (n=2) or 500 μL of saline alone (n=2). APP/PS 1 Tg mice develop amyloid plaques from 4 months of age. Mice were anesthetized with an overdose of sodium pentobarbital and perfused 0.1 M PBS, pH 7.4. Brains were removed 24 h after the ip injection and fixed by immersion in periodate-lysine-paraformaldehyde for 24 h, cryo-protected in 30% sucrose for 3 days, and sectioned into 40 μm coronal sections using a cryostat. Brain sections from the BD-Oligoinjected mouse and the control APP/PS 1 mouse that received a saline alone injection were then stained for Aβ using fluorescent immunohistochemistry. Briefly, free floating sections were incubated with MOM blocking reagent (Vector) followed by an overnight incubation at 4° C. with anti-Aβ antibodies 4G8 and 6E10 diluted in MOM protein concentrate (Vector), as the present inventors previously published. Sections were then incubated with a 488 conjugated secondary antibody (Jackson Immunoresearch) for 2 h at room temperature, mounted onto slides, and cover slipped. Staining was visualized using a LMD6500 fluorescent microscope (Leica); 6E10/4G8 staining was imaged using in the green (488) channel, and BD-Oligo was imaged in the red (561) channel.

T1 sequence (P05067 672-711 limits assumed): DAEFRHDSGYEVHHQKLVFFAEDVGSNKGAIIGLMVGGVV
T2 sequence (P05067 672-711 limits assumed): as above
T3 sequence (P05067 672-711 limits assumed): as above

**Q.** How did the “Bmax, best-fit value” ([1]; detailed statistics of the saturation fit) turn out when `CCOc1cccc(C=Cc2cc(C)c3n2[B-](F)(F)[N+]2=C(CCC(=O)OCC(Cl)(Cl)Cl)C=CC2=C3)c1O` [BD-Oligo] was run?
**A.** 7.886

**Q.** What about the Kd ([1]; detailed statistics of the saturation fit, read-out: Kd, best-fit value) of the same molecule?
**A.** 482 nM

**Q.** What about the Kd ([1]; saturation assay, Scatchard plot, emission 580 nm, read-out: apparent binding constant (Kd) for Aβ oligomers) of the same molecule?
**A.** 480 nM

**Q.** And the “fluorescence enhancement with Aβ monomers, oligomers, fibrils” value ([2]; λex=530 nm)?
**A.** highest fluorescence enhancement is observed upon incubation with Aβ oligomers

**Q.** And the “incubation time at maximum fluorescence during Aβ fibril formation” value [3]?
**A.** about 1 day

**Q.** And the “toxicity associated with in vivo injection” value ([4]; 18 month old APP/PS1 Tg mice)?
**A.** no apparent toxicity

**Q.** And the blood-brain barrier penetration ([4]; 18 month old APP/PS1 Tg mice, brains removed after 24 h)?
**A.** able to cross the BBB

**Q.** What about the “labeling of brain tissue” value ([4]; brain sections 24 h later, co-stained with anti-Aβ 6E10/4G8) of the same molecule?
**A.** fluorescent labeling of AD brain tissue

**Q.** With `Cc1ccc2c(c1)sc(-c1ccc(N(C)C)cc1)[n+]2C.[Cl-]` [ThT, Thioflavin T, reference compound] as the molecule, how does the “fluorescence response to Aβ monomers, oligomers, fibrils” value ([2]; λex=440 nm, dye 5 μM) read?
**A.** increasing order of freshly prepared Aβ monomers, followed by oligomer and fibrils

**Q.** And the “incubation time at maximum fluorescence during Aβ fibril formation” value [3]?
**A.** about 1 day
